Consider 28 compounds from the NIST ThermoML archive (doi:10.1021/acs.jced.8b00635).

Structures are written as SMILES. ± gives the expanded uncertainty stated by the source.

A short description of the series: activity coefficient (dimensionless); of the first substance listed, at infinite dilution; xn = mol fraction of the nth substance listed. The following applies: 101.33 kPa, Liquid, Chromatography, x1 = 0.

Regarding `c1ccccc1` [benzene] + CCCCC(CC)CN(CC(CC)CCCC)C(=O)C(C)C, the activity coefficient was 2.56 ± 0.27 (323.15 K); 2 ± 0.21 (333.15 K); 1.65 ± 0.17 (343.15 K); 1.37 ± 0.14 (353.15 K); 1.15 ± 0.12 (363.15 K); 0.954 ± 0.097 (373.15 K).
Take `CCCC(=O)CC` [3-hexanone] + CCCCC(CC)CN(CC(CC)CCCC)C(=O)C(C)C: the activity coefficient reads like this: (323.15 K) 8.64 ± 0.91; (333.15 K) 6.42 ± 0.68; (343.15 K) 4.88 ± 0.51; (353.15 K) 3.74 ± 0.39; (363.15 K) 2.86 ± 0.3; (373.15 K) 2.15 ± 0.23.
For `CCCC(C)C` [2-methylpentane] + CCCCC(CC)CN(CC(CC)CCCC)C(=O)C(C)C, the activity coefficient (323.15 K) was 1.11 ± 0.11; the activity coefficient (333.15 K) came to 0.938 ± 0.096; the activity coefficient (343.15 K) was determined as 0.768 ± 0.079; the activity coefficient (353.15 K) came out at 0.639 ± 0.067; the activity coefficient (363.15 K) was found to be 0.525 ± 0.057; the activity coefficient (373.15 K) is 0.428 ± 0.049.
`C=CCCCCCC` [oct-1-ene] + CCCCC(CC)CN(CC(CC)CCCC)C(=O)C(C)C: the activity coefficient (323.15 K) was determined as 7.52 ± 0.79; the activity coefficient (333.15 K) came to 6.09 ± 0.64; the activity coefficient (343.15 K) was 4.86 ± 0.51; the activity coefficient (353.15 K) was 3.76 ± 0.4; the activity coefficient (363.15 K) was 2.94 ± 0.31; the activity coefficient (373.15 K) amounted to 2.21 ± 0.23.
`CCCCCC(C)=O` [2-heptanone] + CCCCC(CC)CN(CC(CC)CCCC)C(=O)C(C)C: the activity coefficient by setting is: (323.15 K) 13.8 ± 1.4; (333.15 K) 10.6 ± 1.1; (343.15 K) 8.16 ± 0.86; (353.15 K) 6.2 ± 0.65; (363.15 K) 5 ± 0.53; (373.15 K) 4.04 ± 0.42.
In the case of `C=CCCCC` [hex-1-ene] + CCCCC(CC)CN(CC(CC)CCCC)C(=O)C(C)C, the activity coefficient turned out to be 1.77 ± 0.18 (323.15 K); 1.37 ± 0.14 (333.15 K); 1.17 ± 0.12 (343.15 K); 0.957 ± 0.097 (353.15 K); 0.789 ± 0.081 (363.15 K); 0.678 ± 0.071 (373.15 K).
For the compound `CCCCCCCC` [octane] + CCCCC(CC)CN(CC(CC)CCCC)C(=O)C(C)C, the activity coefficient was determined as 11.9 ± 1.3 (323.15 K); 8.35 ± 0.88 (333.15 K); 6.04 ± 0.64 (343.15 K); 4.54 ± 0.48 (353.15 K); 3.36 ± 0.35 (363.15 K); 2.63 ± 0.28 (373.15 K).
As to `CC#N` [acetonitrile] + CCCCC(CC)CN(CC(CC)CCCC)C(=O)C(C)C, the activity coefficient runs as follows: (323.15 K) 1.47 ± 0.15; (333.15 K) 1.21 ± 0.12; (343.15 K) 1.03 ± 0.1; (353.15 K) 0.861 ± 0.088; (363.15 K) 0.718 ± 0.075; (373.15 K) 0.568 ± 0.061.
Turning to `CCCCCC` [hexane] + CCCCC(CC)CN(CC(CC)CCCC)C(=O)C(C)C, the activity coefficient (323.15 K) turned out to be 1.91 ± 0.2; the activity coefficient (333.15 K) was determined as 1.53 ± 0.16; the activity coefficient (343.15 K) stood at 1.26 ± 0.13; the activity coefficient (353.15 K) came out at 1.02 ± 0.1; the activity coefficient (363.15 K) came to 0.845 ± 0.087; the activity coefficient (373.15 K) turned out to be 0.717 ± 0.075.
As to `Cc1ccccc1` [toluene] + CCCCC(CC)CN(CC(CC)CCCC)C(=O)C(C)C, the activity coefficient came to 5.11 ± 0.54 (323.15 K); 4.25 ± 0.45 (333.15 K); 3.25 ± 0.34 (343.15 K); 2.5 ± 0.26 (353.15 K); 1.88 ± 0.2 (363.15 K); 1.46 ± 0.15 (373.15 K).
In the case of `ClCCl` [dichloromethane] + CCCCC(CC)CN(CC(CC)CCCC)C(=O)C(C)C, the activity coefficient was 0.608 ± 0.065 (323.15 K); 0.506 ± 0.056 (333.15 K); 0.41 ± 0.048 (343.15 K); 0.339 ± 0.042 (353.15 K); 0.273 ± 0.037 (363.15 K); 0.225 ± 0.034 (373.15 K).
In the case of `C=CCCCCC` [1-heptene] + CCCCC(CC)CN(CC(CC)CCCC)C(=O)C(C)C, the activity coefficient came to 4.02 ± 0.42 (323.15 K); 2.89 ± 0.3 (333.15 K); 2.31 ± 0.24 (343.15 K); 1.8 ± 0.19 (353.15 K); 1.25 ± 0.13 (363.15 K); 0.974 ± 0.099 (373.15 K).
For the compound `C=CCCCCCCCC` [1-decene] + CCCCC(CC)CN(CC(CC)CCCC)C(=O)C(C)C, the activity coefficient runs as follows: (323.15 K) 24.3 ± 2.6; (333.15 K) 19.4 ± 2; (343.15 K) 16.8 ± 1.8; (353.15 K) 14 ± 1.5; (363.15 K) 11.1 ± 1.2; (373.15 K) 9.87 ± 1.
With `CCCCCCCCCC` [decane] + CCCCC(CC)CN(CC(CC)CCCC)C(=O)C(C)C, the activity coefficient by setting is: (323.15 K) 26.4 ± 2.8; (333.15 K) 22.7 ± 2.4; (343.15 K) 18.3 ± 1.9; (353.15 K) 15.2 ± 1.6; (363.15 K) 12.2 ± 1.3; (373.15 K) 9.89 ± 1.
For `ClC(Cl)Cl` [trichloromethane] + CCCCC(CC)CN(CC(CC)CCCC)C(=O)C(C)C, the activity coefficient is 1.15 ± 0.12 (323.15 K); 0.966 ± 0.098 (333.15 K); 0.746 ± 0.077 (343.15 K); 0.586 ± 0.063 (353.15 K); 0.463 ± 0.052 (363.15 K); 0.372 ± 0.044 (373.15 K).
Consider `CCc1ccccc1` [ethylbenzene] + CCCCC(CC)CN(CC(CC)CCCC)C(=O)C(C)C, for which the activity coefficient is, setting by setting: (323.15 K) 11.3 ± 1.2; (333.15 K) 8.75 ± 0.92; (343.15 K) 6.78 ± 0.71; (353.15 K) 4.96 ± 0.52; (363.15 K) 3.9 ± 0.41; (373.15 K) 2.88 ± 0.3.
`CCCCCCCCCCC` [undecane] + CCCCC(CC)CN(CC(CC)CCCC)C(=O)C(C)C: the activity coefficient worked out at 39.2 ± 4.1 (323.15 K); 35.9 ± 3.8 (333.15 K); 31.5 ± 3.3 (343.15 K); 27.5 ± 2.9 (353.15 K); 25.5 ± 2.7 (363.15 K); 22.7 ± 2.4 (373.15 K).
Regarding `C1CCCCC1` [cyclohexane] + CCCCC(CC)CN(CC(CC)CCCC)C(=O)C(C)C, the activity coefficient is 2.77 ± 0.29 (323.15 K); 2.15 ± 0.23 (333.15 K); 1.74 ± 0.18 (343.15 K); 1.41 ± 0.15 (353.15 K); 1.18 ± 0.12 (363.15 K); 0.966 ± 0.098 (373.15 K).
Take `C=O` [methanal] + CCCCC(CC)CN(CC(CC)CCCC)C(=O)C(C)C: the activity coefficient runs as follows: (323.15 K) 0.056; (333.15 K) 0.052; (343.15 K) 0.048; (353.15 K) 0.044; (363.15 K) 0.041; (373.15 K) 0.037.
Consider `ClC(Cl)(Cl)Cl` [tetrachloromethane] + CCCCC(CC)CN(CC(CC)CCCC)C(=O)C(C)C, for which the activity coefficient (323.15 K) amounted to 1.94 ± 0.2; the activity coefficient (333.15 K) worked out at 1.6 ± 0.17; the activity coefficient (343.15 K) turned out to be 1.22 ± 0.13; the activity coefficient (353.15 K) was 0.935 ± 0.095; the activity coefficient (363.15 K) worked out at 0.727 ± 0.076; the activity coefficient (373.15 K) was 0.581 ± 0.062.
As to `CCCCc1ccccc1` [butylbenzene] + CCCCC(CC)CN(CC(CC)CCCC)C(=O)C(C)C, the activity coefficient reads like this: (323.15 K) 24.4 ± 2.6; (333.15 K) 20.7 ± 2.2; (343.15 K) 17.5 ± 1.8; (353.15 K) 15 ± 1.6; (363.15 K) 12.5 ± 1.3; (373.15 K) 10.6 ± 1.1.
As to `CCCc1ccccc1` [propylbenzene] + CCCCC(CC)CN(CC(CC)CCCC)C(=O)C(C)C, the activity coefficient amounted to 17.8 ± 1.9 (323.15 K); 14.7 ± 1.6 (333.15 K); 11.5 ± 1.2 (343.15 K); 9.18 ± 0.97 (353.15 K); 7.33 ± 0.77 (363.15 K); 5.72 ± 0.6 (373.15 K).
For `CC(C)CC(C)(C)C` [2,2,4-trimethylpentane] + CCCCC(CC)CN(CC(CC)CCCC)C(=O)C(C)C, the activity coefficient turned out to be 4.26 ± 0.45 (323.15 K); 3.33 ± 0.35 (333.15 K); 2.6 ± 0.27 (343.15 K); 2.09 ± 0.22 (353.15 K); 1.74 ± 0.18 (363.15 K); 1.29 ± 0.13 (373.15 K).
Consider `Cc1ccc(C)cc1` [1,4-dimethylbenzene] + CCCCC(CC)CN(CC(CC)CCCC)C(=O)C(C)C, for which the activity coefficient is, setting by setting: (323.15 K) 11.6 ± 1.2; (333.15 K) 9.01 ± 0.95; (343.15 K) 6.9 ± 0.73; (353.15 K) 5.2 ± 0.55; (363.15 K) 3.75 ± 0.4; (373.15 K) 2.89 ± 0.3.
Regarding `CCCCCCC` [heptane] + CCCCC(CC)CN(CC(CC)CCCC)C(=O)C(C)C, the activity coefficient is, setting by setting: (323.15 K) 4.37 ± 0.46; (333.15 K) 3.49 ± 0.37; (343.15 K) 2.78 ± 0.29; (353.15 K) 2.32 ± 0.24; (363.15 K) 2.02 ± 0.21; (373.15 K) 1.71 ± 0.18.
Regarding `CCCCCCCCC` [nonane] + CCCCC(CC)CN(CC(CC)CCCC)C(=O)C(C)C, the activity coefficient reads like this: (323.15 K) 18.5 ± 1.9; (333.15 K) 16 ± 1.7; (343.15 K) 13.7 ± 1.4; (353.15 K) 11.8 ± 1.2; (363.15 K) 9.8 ± 1; (373.15 K) 8.67 ± 0.91.
Consider `CCOC(C)=O` [ethyl acetate] + CCCCC(CC)CN(CC(CC)CCCC)C(=O)C(C)C, for which the activity coefficient was 1.43 ± 0.15 (323.15 K); 1.22 ± 0.12 (333.15 K); 0.985 ± 0.1 (343.15 K); 0.87 ± 0.089 (353.15 K); 0.7 ± 0.073 (363.15 K); 0.566 ± 0.061 (373.15 K).
`CC(C)=O` [acetone] + CCCCC(CC)CN(CC(CC)CCCC)C(=O)C(C)C: the activity coefficient (323.15 K) turned out to be 0.901 ± 0.092; the activity coefficient (333.15 K) came to 0.745 ± 0.077; the activity coefficient (343.15 K) was determined as 0.596 ± 0.064; the activity coefficient (353.15 K) stood at 0.465 ± 0.052; the activity coefficient (363.15 K) worked out at 0.375 ± 0.045; the activity coefficient (373.15 K) amounted to 0.294 ± 0.039.
